Laboratory results: US9139551B2, “Preparation of a new class of water-soluble ammonium 2,3-dihydroxy-5-((2R,3R)-3,5,7-trihydroxy-4-oxochroman-2-yl) phenolates and their biological activity of alcohol elimination” (priority 2014, dated 2015)

Key:
Balb/C mice [1] = test: Climbing net test; format: in vivo; conditions: 2 mg/kg gavage 30 min before alcohol
Method: Climbing Net Test • Groups design and treatment before experiment are as the same as that in deintoxication test. […] 30 minutes later all mice administrated alcohol (liquid Erguotou, ethonol concentration was diluted to 30%) 0.2 mL/kg BW and placed on a vertical metal net and measured the time when mice climbed on net.

Balb/C mice [2] = test: Deintoxication test (agent 30 min before alcohol); conditions: 2 mg/kg gavage 30 min before 30% ethanol
Balb/C mice [3] = test: Anti-alcoholism test (agent 30 min after alcohol); format: in vivo; conditions: 2 mg/kg gavage 30 min after 30% ethanol
Description: Anti-Alcoholism Tests • Groups design and treatment before experiment are as the same as that in Deintoxication test. […]

Balb/C mice [4] = test: Plasma EtOH concentration assay; format: in vivo; conditions: intragastric 2 mg/kg
Method: Plasma EtOH Concentration Assay. • Blood samples from the tail vein of mice at different time points (0, 15, 30, 45, 60, 90, 120, 240, 480 and 720 minutes) after EtOH (30% ethanol, 0.2 ml/kg bw) or TDHM (2 mg/kg bw), PDHM (2 mg/kg bw) or DHM (2 mg/kg bw) gavage were collected for plasma EtOH concentrations (plasma [EtOH]) assays. (“BW” or “bw”: body weight) • Briefly, the Balb/C mice were put into a restraint tube and the tail was warmed at 37° C. The tail vein at the tip of the tail was punched with a sharp blade. Approximately 0.2 ml venous blood was dropped to a capillary blood collection tube containing lithium heparin (Ram Scientific). Blood samples were centrifuged at 2500 rpm for 20 min. The supernatant was collected and stored at −80° C. until assay. The EtOH content of each blood sample was measured in duplicate along with EtOH standards using the alcohol oxidase reaction procedures (EnzyChrom™ Ethanol Acid Assay Kit, ECET-100) (Liang et al., 2007). The sample preparations were the same as described above.

SMILES: O=C1c2c(O)cc(O)cc2O[C@H](c2cc(O)c(O)c(O)c2)[C@H]1O [DHM, dihydromyricetin, reference compound]
- solubility (Solubility in water): ≤ 264 µg/mL
- climbing time vs normal control mice (Balb/C mice [1]): significantly prolonged
- climbing (Balb/C mice [1]; vertical metal net): 329.75 ± 76.46 min
- Sleep time M ± SD (Balb/C mice [2]): 135.71 ± 25.25 min
- Tolerance time M ± SD (Balb/C mice [2]): 25 ± 7.29 min
- Dead number (Balb/C mice [2]; 20 mice): 2 piece
- Rate of drunk (Balb/C mice [2]; 20 mice): 10%
- Sleep time M ± SD (Balb/C mice [3]): 138.17 ± 33.73 min
- Tolerance time M ± SD (Balb/C mice [3]): 18.29 ± 10.07 min
- Rate of drunk (Balb/C mice [3]; 20 mice): 0%
- blood alcohol concentration vs control group treated with saline (Balb/C mice [4]): significantly decreased
